From ChEMBL document CHEMBL1687830, “Evaluation of ceftazidime and NXL104 in two murine models of infection due to KPC-producing Klebsiella pneumoniae” (2011) come the findings set out here.

Common to all, as to type: functional
The test system of test [1] is Klebsiella pneumoniae. Briefly: Antimicrobial activity against carbapenemases KPC-producing Klebsiella pneumoniae VA-361 infected in sc dosed CD-1 mouse in presence of 4 ug/ml cavulanate beta-lactamase inhibitor.
Test [2] concerns Klebsiella pneumoniae. Put plainly: Antimicrobial activity against carbapenemases KPC-producing Klebsiella pneumoniae VA-406 infected in sc dosed CD-1 mouse.
The test system of test [3] is Klebsiella pneumoniae. Put plainly: Antimicrobial activity against carbapenemases KPC-producing Klebsiella pneumoniae VA-361 infected in sc dosed CD-1 mouse in presence of 4 ug/ml NXL104 beta-lactamase inhibitor.
The test system of test [4] is Klebsiella pneumoniae. Put plainly: Antimicrobial activity against carbapenemases KPC-producing Klebsiella pneumoniae VA-361 infected in sc dosed CD-1 mouse in presence of 1 ug/ml NXL104 beta-lactamase inhibitor.
The subject of test [5] is Klebsiella pneumoniae. Put plainly: Antimicrobial activity against carbapenemases KPC-producing Klebsiella pneumoniae VA-406 infected in sc dosed CD-1 mouse in presence of 1 ug/ml NXL104 beta-lactamase inhibitor.
For test [6], the system named is Klebsiella pneumoniae. Put plainly: Antimicrobial activity against carbapenemases KPC-producing Klebsiella pneumoniae VA-406 infected in sc dosed CD-1 mouse in presence of 4 ug/ml Tazobactam beta-lactamase inhibitor.
Test [7] has as its system Klebsiella pneumoniae. Put plainly: Antimicrobial activity against carbapenemases KPC-producing Klebsiella pneumoniae VA-361 infected in sc dosed CD-1 mouse.
Test [8] deals with Klebsiella pneumoniae. Put plainly: Antimicrobial activity against carbapenemases KPC-producing Klebsiella pneumoniae VA-406 infected in sc dosed CD-1 mouse in presence of 4 ug/ml cavulanate beta-lactamase inhibitor.
In test [9] the test system is Klebsiella pneumoniae. Briefly: Antimicrobial activity against carbapenemases KPC-producing Klebsiella pneumoniae VA-406 infected in sc dosed CD-1 mouse in presence of 4 ug/ml NXL104 beta-lactamase inhibitor.
In test [10] the test system is Klebsiella pneumoniae. Briefly: Antimicrobial activity against carbapenemases KPC-producing Klebsiella pneumoniae VA-361 infected in sc dosed CD-1 mouse in presence of 2 ug/ml NXL104 beta-lactamase inhibitor.
In test [11] the test system is Klebsiella pneumoniae. Put plainly: Antimicrobial activity against carbapenemases KPC-producing Klebsiella pneumoniae VA-406 infected in sc dosed CD-1 mouse in presence of 2 ug/ml NXL104 beta-lactamase inhibitor.
The test system of test [12] is Klebsiella pneumoniae. Put plainly: Antimicrobial activity against carbapenemases KPC-producing Klebsiella pneumoniae VA-361 infected in sc dosed CD-1 mouse in presence of 4 ug/ml Tazobactam beta-lactamase inhibitor.
For test [13], the system named is Klebsiella pneumoniae. Put plainly: Antimicrobial activity against carbapenemases KPC-producing Klebsiella pneumoniae VA-361 infected in CD-1 mouse thigh infection model assessed as change in log10 CFU reduction per thigh treated 1.5 hr post infection at 1024 mg/kg, sc after 24 hrs by acute lethal septicemia analysis (reference value: 8.93 log10CFU/thigh). The settings on record: route subcutaneous.

Test [14] relates to Klebsiella pneumoniae. Briefly: Antimicrobial activity against carbapenemases KPC-producing Klebsiella pneumoniae VA-406 infected in CD-1 mouse thigh infection model assessed as change in log10 CFU reduction per thigh treated 1.5 hr post infection at 1024 mg/kg, sc after 24 hrs by acute lethal septicemia analysis (reference value: 8.67 log10CFU/thigh). The following applies: route subcutaneous.

Test [15] deals with Klebsiella pneumoniae. Briefly: Antimicrobial activity against carbapenemases KPC-producing Klebsiella pneumoniae VA-361 infected in CD-1 mouse thigh infection model assessed as change in log10 CFU reduction per thigh treated 1.5 hr post infection at >=1024:256 mg/kg, sc compound to NXL104 beta-lactamase inhibitor ratio after 24 hrs by acute lethal septicemia analysis (reference value: 8.93 log10CFU/thigh).

In test [16] the test system is Klebsiella pneumoniae. Put plainly: Antimicrobial activity against carbapenemases KPC-producing Klebsiella pneumoniae VA-361 infected in CD-1 mouse thigh infection model assessed as change in log10 CFU reduction per thigh treated 1.5 hr post infection at 2048 mg/kg, sc after 24 hrs by acute lethal septicemia analysis (reference value: 8.93 log10CFU/thigh). The following applies: route subcutaneous.

In test [17] the test system is Klebsiella pneumoniae. Briefly: Antimicrobial activity against carbapenemases KPC-producing Klebsiella pneumoniae VA-406 infected in CD-1 mouse thigh infection model assessed as change in log10 CFU reduction per thigh treated 1.5 hr post infection at >=8:2 mg/kg, sc compound to NXL104 beta-lactamase inhibitor ratio after 24 hrs by acute lethal septicemia analysis (reference value: 8.67 log10CFU/thigh).

For test [18], the system named is Klebsiella pneumoniae. Put plainly: Antimicrobial activity against carbapenemases KPC-producing Klebsiella pneumoniae VA-406 infected in CD-1 mouse thigh infection model assessed as change in log10 CFU reduction per thigh treated 1.5 hr post infection at 2048 mg/kg, sc after 24 hrs by acute lethal septicemia analysis (reference value: 8.67 log10CFU/thigh). The following applies: route subcutaneous.

Molecules are shown by their SMILES. Values after ≈ are worked out from the molar mass of the structure shown.

Broadly, the MIC is the lowest concentration that inhibits growth of the organism. Consider `CO/N=C(\C(=O)N[C@@H]1C(=O)N2C(C(=O)[O-])=C(C[N+]3(C)CCCC3)CS[C@H]12)c1csc(N)n1` [CEFEPIME], for which the minimum inhibitory concentration (MIC) in [1] is 8 µg/mL; in test [2], 256 µg/mL (≈ 533 µM); in [3], ≤ 0.06 µg/mL; in test [4], 0.5 µg/mL; in test [5] it was 0.5 µg/mL; in test [6] it was 128 µg/mL. In addition, the MIC in [7] came out at 32 µg/mL (≈ 66.6 µM); in [8] it was 128 µg/mL; in test [9] it was 0.125 µg/mL; in test [10], 0.25 µg/mL; in [11], 0.5 µg/mL.

For `CO/N=C(\C(=O)N[C@@H]1C(=O)N2C(C(=O)O)=C(COC(C)=O)CS[C@H]12)c1csc(N)n1` [CEFOTAXIME], the MIC in test [1] is 16 µg/mL; in test [2] it was ≥ 512 µg/mL; in test [3], 0.125 µg/mL; in test [4] it was 0.5 µg/mL; in test [5], 0.5 µg/mL; in test [6] it was 256 µg/mL. Also, the MIC in [7] stood at 64 µg/mL (≈ 141 µM); in test [8] it was 256 µg/mL; in test [9], 0.125 µg/mL; in test [10], 0.5 µg/mL; in test [12], 16 µg/mL; in test [11], 0.5 µg/mL.

Consider `C[C@@H](O)[C@H]1C(=O)N2C(C(=O)O)=C(SCCNC=N)C[C@H]12` [IMIPENEM ANHYDROUS], for which the MIC was determined as 2 µg/mL in [1]; 256 µg/mL (≈ 855 µM) in test [2]; 256 µg/mL in test [6]; 4 µg/mL (≈ 13.4 µM) in test [7]; 128 µg/mL in test [8]; 4 µg/mL in test [12].

Turning to `C[C@@H](O)[C@H]1C(=O)N2C(C(=O)O)=C(S[C@@H]3CN[C@H](C(=O)N(C)C)C3)[C@H](C)[C@H]12` [MEROPENEM], the MIC in test [1] worked out at 2 µg/mL; in test [2], 256 µg/mL (≈ 668 µM); in test [6], 128 µg/mL; in [7] it was 4 µg/mL (≈ 10.4 µM); in [8], 128 µg/mL; in test [12], 4 µg/mL.

Turning to `CCN1CCN(C(=O)N[C@@H](C(=O)N[C@@H]2C(=O)N3[C@@H]2SC(C)(C)[C@@H]3C(=O)O)c2ccccc2)C(=O)C1=O` [PIPERACILLIN], the MIC was ≥ 512 µg/mL in [2]; ≤ 0.06 µg/mL in test [3]; 32 µg/mL in test [4]; 16 µg/mL in [5]; ≥ 512 µg/mL in test [6]; ≥ 512 µg/mL in test [7]. In addition, the MIC in test [9] is 0.5 µg/mL; in [10], 8 µg/mL; in test [12], ≥ 512 µg/mL; in test [11], 8 µg/mL. Besides, the log10cfu was -0.32 in [13]; 0.25 in test [14]; -1.76 in [15]; -0.34 in test [16]; 2.93 in test [17]; 0.03 in test [18].
